These results are taken from ChEMBL document CHEMBL4610120, “New Broad-Spectrum Antibiotics Containing a Pyrrolobenzodiazepine Ring with Activity against Multidrug-Resistant Gram-Negative Bacteria” (J Med Chem, 2020).

The structures appear in SMILES notation. Values after ≈ are worked out from the molar mass of the structure shown. Active and inactive are the calls of the source. The calls are words filed in the database; no cut-off is given here. Some results are limits rather than exact numbers.

By MIC is commonly meant the least concentration at which growth counts as inhibited.

Data set [1] can be described thus: Solubility of the compound at 32 mg/L. It is filed as physicochemical.
The test system of data set [2] is Klebsiella pneumoniae. The experiment in a line: Antibacterial activity against multidrug-resistant Klebsiella pneumoniae NCTC 13368-7-R2 measured after 10 passages by microdilution broth method. In kind it is functional.
Data set [3] relates to Klebsiella pneumoniae. Description: Bactericidal activity against multidrug-resistant Klebsiella pneumoniae NCTC 13438 assessed as reduction in viable bacterial count at 4 times MIC measured up to 24 hrs by Miles-Misra dilution method based time-kill assay. In kind it is functional, organism-based.
Data set [4] has as its system Klebsiella pneumoniae. The experiment in a line: Antibacterial activity against multidrug-resistant Klebsiella pneumoniae NCTC 13368-7-R1 measured after 10 passages in presence of efflux pump inhibitor CCCP by microdilution broth method. In kind it is functional.
Data set [5] has as its system Klebsiella pneumoniae. The experiment in a line: Antibacterial activity against multidrug-resistant Klebsiella pneumoniae NCTC 13368-7-R1 measured after 10 passages by microdilution broth method. It is filed as functional.
Data set [6] concerns Klebsiella pneumoniae. Description: Antimicrobial activity against multidrug-resistant Klebsiella pneumoniae NCTC 13368 in presence of membrane permeabilizer PMBN by microdilution broth method. It is filed as functional. (In general: Broth dilution looks for growth in wells or tubes with falling amounts of substance.)
For data set [7], the system named is Klebsiella pneumoniae. The experiment in a line: Antibacterial activity against multidrug-resistant Klebsiella pneumoniae NCTC 13368-7-R2 measured after 10 passages in presence of efflux pump inhibitor CCCP by microdilution broth method. In kind it is functional.
The subject of data set [8] is Klebsiella pneumoniae. Description: Ratio of MIC for multidrug-resistant Klebsiella pneumoniae NCTC 13368-7-R2 measured after 10 passages to MIC for multidrug-resistant Klebsiella pneumoniae NCTC 13368-7-R2 measured after 10 passages in presence of efflux pump inhibitor PAbetaN. In kind it is functional.
Data set [9] has as its system Klebsiella pneumoniae. The experiment in a line: Antibacterial activity against multidrug-resistant Klebsiella pneumoniae NCTC 13368-7-R2 measured after 10 passages in presence of membrane permeabilizer PMBN by microdilution broth method. It is filed as functional.
Data set [10] deals with Klebsiella pneumoniae. Description: Ratio of MIC for multidrug-resistant Klebsiella pneumoniae NCTC 13368-7-R2 measured after 10 passages to MIC for multidrug-resistant Klebsiella pneumoniae NCTC 13368-7-R2 measured after 10 passages in presence of membrane permeabilizer PMBN. In kind it is functional.
Data set [11] relates to Acinetobacter baumannii. Description: Antimicrobial activity against multidrug-resistant Acinetobacter baumannii UKA2 by microdilution broth method. In kind it is functional.
The subject of data set [12] is Acinetobacter baumannii. Description: Antimicrobial activity against multidrug-resistant Acinetobacter baumannii NCTC 13302 by microdilution broth method. It is filed as functional.
In data set [13] the test system is Klebsiella pneumoniae. The experiment in a line: Antibacterial activity against multidrug-resistant Klebsiella pneumoniae NCTC 13368-7-R2 measured after 10 passages in presence of efflux pump inhibitor PAbetaN by microdilution broth method. In kind it is functional.
The subject of data set [14] is Klebsiella pneumoniae. Description: Antimicrobial activity against Klebsiella pneumoniae M6 by microdilution broth method. It is filed as functional.
For data set [15], the system named is Klebsiella pneumoniae. The experiment in a line: Ratio of MIC for multidrug-resistant Klebsiella pneumoniae NCTC 13368 to MIC for multidrug-resistant Klebsiella pneumoniae NCTC 13368 in presence of membrane permeabilizer PMBN. In kind it is functional.
Data set [16] has as its system Acinetobacter baumannii. Description: Antimicrobial activity against multidrug-resistant Acinetobacter baumannii W1 by microdilution broth method. It is filed as functional.
The test system of data set [17] is Acinetobacter baumannii. The experiment in a line: Bactericidal activity against Acinetobacter baumannii NCTC 13424 assessed as reduction in viable bacterial count at 4 times MIC measured up to 24 hrs by Miles-Misra dilution method based time-kill assay. In kind it is functional, organism-based.
In data set [18] the test system is Klebsiella pneumoniae. Description: Antibacterial activity against multidrug-resistant Klebsiella pneumoniae NCTC 13368-7-R1 measured after 10 passages in presence of efflux pump inhibitor PAbetaN by microdilution broth method. It is filed as functional.
In data set [19] the test system is Pseudomonas aeruginosa. The experiment in a line: Antimicrobial activity against multidrug-resistant Pseudomonas aeruginosa NCTC 13437 by microdilution broth method. It is filed as functional.
Data set [20] deals with Klebsiella pneumoniae. Description: Antimicrobial activity against multidrug-resistant Klebsiella pneumoniae NCTC 13438 in presence of efflux pump inhibitor CCCP by microdilution broth method. In kind it is functional.
The test system of data set [21] is Pseudomonas aeruginosa. Description: Antimicrobial activity against multidrug-resistant Pseudomonas aeruginosa NCTC 13437 in presence of membrane permeabilizer PMBN by microdilution broth method. In kind it is functional.
The test system of data set [22] is Klebsiella pneumoniae. The experiment in a line: Bactericidal activity against multidrug-resistant Klebsiella pneumoniae NCTC 13368 assessed as reduction in viable bacterial count at 4 times MIC measured after 6 hrs by Miles-Misra dilution method based time-kill assay. It is filed as functional, organism-based.
In data set [23] the test system is Acinetobacter baumannii. The experiment in a line: Bactericidal activity against Acinetobacter baumannii AYE assessed as reduction in viable bacterial count at 4 times MIC measured up to 24 hrs by Miles-Misra dilution method based time-kill assay. In kind it is functional, organism-based.
For data set [24], the system named is Klebsiella pneumoniae. Description: Antimicrobial activity against multidrug-resistant Klebsiella pneumoniae NCTC 13368 by microdilution broth method. In kind it is functional.
Data set [25] deals with Klebsiella pneumoniae. The experiment in a line: Ratio of MIC for multidrug-resistant Klebsiella pneumoniae NCTC 13368-7-R1 measured after 10 passages to MIC for multidrug-resistant Klebsiella pneumoniae NCTC 13368-7-R1 measured after 10 passages in presence of membrane permeabilizer PMBN. It is filed as functional.
In data set [26] the test system is Klebsiella pneumoniae. Description: Antibacterial activity against multidrug-resistant Klebsiella pneumoniae NCTC 13368-7-R1 measured after 10 passages in presence of membrane permeabilizer PMBN by microdilution broth method. It is filed as functional.
For data set [27], the system named is Acinetobacter baumannii. The experiment in a line: Antimicrobial activity against Acinetobacter baumannii ATCC 17978 in presence of efflux pump inhibitor CCCP by microdilution broth method. It is filed as functional.
Data set [28] relates to Acinetobacter baumannii. Description: Bactericidal activity against Acinetobacter baumannii AYE assessed as reduction in viable bacterial count at 4 times MIC measured after 24 hrs by Miles-Misra dilution method based time-kill assay. In kind it is functional, organism-based.
Data set [29] concerns Acinetobacter baumannii. Description: Ratio of MIC for multidrug-resistant Acinetobacter baumannii AYE to MIC for multidrug-resistant Acinetobacter baumannii AYE in presence of efflux pump inhibitor CCCP. In kind it is functional.
Data set [30] can be described thus: Ratio of MIC for Pseudomonas aeruginosa PAO1 to MIC for Pseudomonas aeruginosa harboring MexCD mutant. In kind it is functional.
The test system of data set [31] is Acinetobacter baumannii. Description: Bactericidal activity against Acinetobacter baumannii ATCC 17978 assessed as reduction in viable bacterial count at 4 times MIC measured up to 24 hrs by Miles-Misra dilution method based time-kill assay. In kind it is functional, organism-based.
Data set [32] deals with Klebsiella pneumoniae. Description: Bactericidal activity against multidrug-resistant Klebsiella pneumoniae NCTC 13438 assessed as viable bacterial count at 4 times MIC measured after 4 to 24 hrs by Miles-Misra dilution method based time-kill assay. It is filed as functional, organism-based.
Data set [33] deals with Acinetobacter baumannii. The experiment in a line: Bactericidal activity against Acinetobacter baumannii NCTC 13424 assessed as reduction in viable bacterial count at 4 times MIC measured after 24 hrs by Miles-Misra dilution method based time-kill assay. In kind it is functional, organism-based.
The next data set has as its system Staphylococcus aureus. Description: Antibacterial activity against methicillin sensitive Staphylococcus aureus NCTC 6571 by microdilution broth method. In kind it is functional.
Data set [34] concerns Klebsiella pneumoniae. Description: Bactericidal activity against multidrug-resistant Klebsiella pneumoniae 16 assessed as viable bacterial count at 4 times MIC measured after 4 to 24 hrs by Miles-Misra dilution method based time-kill assay. It is filed as functional, organism-based.
Data set [35] deals with Klebsiella pneumoniae. Description: Bactericidal activity against multidrug-resistant Klebsiella pneumoniae NCTC 13368 assessed as viable bacterial count at 4 times MIC measured after 4 to 24 hrs by Miles-Misra dilution method based time-kill assay. It is filed as functional, organism-based.
Another data set deals with Escherichia coli. The experiment in a line: Antimicrobial activity against multidrug-resistant Escherichia coli NCTC 12923 assessed as mutation frequency at 4 times MIC measured after 48 hrs. It is filed as functional.
Data set [36] has as its system Klebsiella pneumoniae. The experiment in a line: Antimicrobial activity against Klebsiella pneumoniae M6 assessed as mutation frequency at 4 times MIC measured after 48 hrs. It is filed as functional.
Data set [37] relates to Acinetobacter baumannii. The experiment in a line: Ratio of MIC for multidrug-resistant Acinetobacter baumannii AYE to MIC for multidrug-resistant Acinetobacter baumannii AYE in presence of efflux pump inhibitor PAbetaN. In kind it is functional.
The subject of data set [38] is Acinetobacter baumannii. Description: Antimicrobial activity against Acinetobacter baumannii ATCC 17978 assessed as mutation frequency at 4 times MIC measured after 48 hrs. In kind it is functional.

In the case of `COc1cc2c(cc1OCCCC(=O)Nc1cc(C(=O)Nc3ccc4oc(C(=O)N5CCSCC5)cc4c3)n(C)c1)N=C[C@@H]1CCCN1C2=O`, the solubility result in data set [1] is “Insoluble”. The MIC in the data set with Klebsiella pneumoniae [2] was more than 128 µg/mL; with Klebsiella pneumoniae [4], 128 µg/mL; against Klebsiella pneumoniae [5] it was 128 µg/mL (≈ 183 µM); in the data set with Klebsiella pneumoniae [6], 8 µg/mL; in the data set with Klebsiella pneumoniae [7] it was more than 128 µg/mL; in the data set on Klebsiella pneumoniae [9] it was 64 µg/mL. Besides, the MIC is 4 µg/mL (≈ 5.72 µM) in the data set on Acinetobacter baumannii [11]; 4 µg/mL (≈ 5.72 µM) against Acinetobacter baumannii [12]; 128 µg/mL in the data set on Klebsiella pneumoniae [13]; 1 µg/mL (≈ 1.43 µM) in the data set with Klebsiella pneumoniae [14]; 4 µg/mL (≈ 5.72 µM) against Acinetobacter baumannii [16]; 32 µg/mL with Klebsiella pneumoniae [18]. The MIC in the data set on Pseudomonas aeruginosa [19] was more than 32 µg/mL; in the data set on Klebsiella pneumoniae [20], 4 µg/mL; with Pseudomonas aeruginosa [21], 2 to 32 µg/mL; in the data set on Klebsiella pneumoniae [24] it was 32 µg/mL (≈ 45.8 µM); in the data set with Klebsiella pneumoniae [26], 8 µg/mL. Further, the result in the data set on Klebsiella pneumoniae [3], in the data set on Acinetobacter baumannii [17], in the data set on Klebsiella pneumoniae [22] and with Acinetobacter baumannii [23] was Active. Besides, the Ratio with Klebsiella pneumoniae [8], in the data set with Klebsiella pneumoniae [10], in the data set with Klebsiella pneumoniae [15] and in the data set on Klebsiella pneumoniae [25] was 4 each time.
Consider `COc1cc2c(cc1OCCCC(=O)Nc1cc(C(=O)Nc3ccc4sc(C(=O)N(C)C)cc4c3)n(C)c1)N=C[C@@H]1CCCN1C2=O`, for which the MIC amounted to 0.25 µg/mL with Acinetobacter baumannii [27] and 0.03 µg/mL (≈ 0.0457 µM) with Staphylococcus aureus. Besides, the result with Acinetobacter baumannii [28] and with Acinetobacter baumannii [33] was inactive. Besides, the Ratio with Acinetobacter baumannii [29] was 4; in data set [30], more than 4; with Acinetobacter baumannii [37], 4. Besides, in the data set on Acinetobacter baumannii [31], the outcome was Active. The Activity result is on record as “Below limit of detection” with Klebsiella pneumoniae [32]; “Below limit of detection” in the data set on Klebsiella pneumoniae [34]; “Below limit of detection” in the data set on Klebsiella pneumoniae [35]; less than 4.3 ×10⁻⁸ No_unit in the data set with Escherichia coli; 1 ×10⁻⁶ No_unit with Klebsiella pneumoniae [36]; less than 1.5 ×10⁻⁸ No_unit with Acinetobacter baumannii [38].
